From patent publication US9790211B2, “5-amino-quinoline-8-carboxamide derivatives as 5-HT4 receptor agonists” (SUVEN LIFE SCIENCES LIMITED, priority 2013, dated 2017)

What was measured:
[1] = test system: Aβ1-42; experiment: Effect on CSF Aβ1-42 level (ELISA); assay type: in vivo, Male Sprague Dawley Rat; conditions: p.o., two hour post treatment
Procedure: The control group of male rats received a vehicle (reagent grade water) per orally by gavage at a dose volume of 10 mL/kg. The treated groups (6 rat per group) received a single dose of test compound (different doses) or DAPT (50.0 mg/kg). Two hour post dose of vehicle or test compounds, rats were anesthetized with isoflurane and CSF was collected by puncturing Cisterna magna using 0.5 mL syringes by utilizing stereotaxic frame. CSF samples were frozen in liquid nitrogen and stored at −80° C. until ELISA was performed.
• 1. CSF samples were thawed to RT and diluted with Tris Buffer Saline containing protease inhibitors at 1:10 ratio [15:150 μL (15 μL CSF+ 135 μL TBS], • 2. To this diluted CSF samples 0.15 mL of EIA buffer (1:1 ratio) was added. These diluted samples were subjected for Aβ1-42 level measurement by ELISA. Measurement of Aβ1-42 by ELISA Kit:
To investigate the role of an acute treatment of test compound on Aβ1-42 levels, expression of this protein was measured in CSF of treated and untreated rat by ELISA assay. The entire procedure was followed as described in ELISA kit manual (Mouse/Rat […], Cat No: 27720, IBL International, Hamburg, Germany).
Statistical analyses were performed using the Graph Pad Prism (Version 4). Data are Mean±SD of Aβ1-42 levels expressed as percentage of control values (rat which received regent grade water). Values were compared between the different groups by unpaired t test. The significance level was set at *p<0.05; **p<0.01; ***p<0.001.

[2] = test system: acetylcholine levels in the frontal cortex; experiment: Modulation of acetylcholine from the frontal cortex (microdialysis); assay type: in vivo, male Wistar rats; conditions: p.o.
Source text: (§1) Male Wistar rats (240-300 gram body weights) were stereotaxically implanted with a microdialysis guide cannula in the frontal cortex (AP: +3.2 mm, ML: −3.2 mm, DV: −1.5 mm). Co-ordinates were taken according to Paxinos and Watson (2007) with reference points taken from bregma and vertical from the skull. The rats were allowed to recover individually for five days in a round bottom Plexiglas bowl with free access to feed and water.
One day prior to the microdialysis experiment, rats were connected to a dual quartz lined two-channel liquid swivel (Instech. UK) on a counter balance lever arm, which allowed unrestricted movements of the animal. […]
On the day of study, probe was perfused at a constant flow rate of 1.5 (μL/min with artificial cerebrospinal fluid (aCSF; NaCl 147 mM. KCl 3.0 mM, MgCl2 1.0 mM, CaCl2. 2H2O 1.3 mM, NaH2PO4.2H2O 0.2 mM and Na2HPO4. 7H2O 1.0 mM, pH 7.2). A stabilization period of 2 h was maintained and five basal samples were collected at 20 minutes intervals. The compound of Example 18 or vehicle was administered and dialysate samples were collected at 20 minutes interval for an additional period of 4 hours. Dialysates were stored below −70° C. until quantitation of acetylcholine.
Acetylcholine in dialysate was quantified in the calibration range of 0.103 nmol-103.497 nmol using LC-MS/MS method. […]

[3] = test system: acetylcholine levels in ventral hippocampus; experiment: Modulation of acetylcholine from the ventral hippocampus (microdialysis); assay type: in vivo, male Wistar rats; conditions: p.o.
Source text: as §1, with “ventral hippocampus” for “frontal cortex”, “−5.2” for “+3.2”, “+5.0” for “−3.2”, “−3.8” for “−1.5”
One day prior to the microdialysis experiment, rats were connected to a dual quartz lined two-channel liquid swivel (Instech, UK) on a counter balance lever arm, which allowed unrestricted movements of the animal. […]
On the day of study, probe was perfused at a constant flow rate of […] with artificial cerebrospinal fluid (aCSF; NaCl 147 mM, KCl 3.0 mM, MgCl2 1.0 mM, CaCl2. 2H2O 1.3 mM, NaH2PO4.2H2O 0.2 mM and Na2HPO4. 7H2O 1.0 mM, pH 7.2). […] Dialysates were stored below −70° C. until quantitation of acetylcholine.
Acetylcholine in dialysate was quantified in the calibration range of 0.103 nmol-103.497 nmol using LC-MS/MS method.
All microdialysis data were plotted as percent change from mean dialysate basal concentrations with 100% defined as the average of five predose values. The AUC was calculated by trapezoidal rule using WinNonlin (5.0.1 version. Pharsight Corp. CA). […]

[4] = 3.0 and 10.0 mg/kg, male Wistar rats

Structure (SMILES): Nc1c(Cl)cc(C(=O)NCC2CCN(CC3CCOCC3)CC2)c2ncccc12.O=C(O)/C=C/C(=O)O [Example 1, 5-Amino-6-chloro-N-{[1-(tetrahydro-2H-pyran-4-ylmethyl)-4-piperidinyl]methyl}quinoline-8-carboxamide hemifumarate]
- decrease in the rat CSF Aβ1-42 levels ([1]; 0.03 mg/kg): 25%
- decrease in the rat CSF Aβ1-42 levels ([1]; 0.1 mg/kg): 21%
- decrease in the rat CSF Aβ1-42 levels ([1]; 0.3 mg/kg): 35%
- decrease in the rat CSF Aβ1-42 levels ([1]; 1.0 mg/kg): 22%
- decrease in the rat CSF Aβ1-42 levels ([1]; 3.0 mg/kg): 26%

Structure (SMILES): Nc1c(Cl)cc(C(=O)NCC2CCN(CC3CCOCC3)CC2)c2ncccc12.O=C(O)C(O)C(O)C(=O)O [Example 13, 5-Amino-6-chloro-N-{[1-(tetrahydro-2H-pyran-4-ylmethyl)-4-piperidinyl]methyl} quinoline-8-carboxamide L(+)-tartarate]
- Area under the curve of acetylcholine change, frontal cortex (in words) ([2]; 10.0 mg/kg, vs vehicle, p<0.05): significant
- acetylcholine levels from the frontal cortex (in words) [2, 4]: dose dependent increase
- Area under the curve of acetylcholine change, ventral hippocampus (in words) ([3]; 10.0 mg/kg, vs vehicle, p<0.01): significant
- acetylcholine levels from the ventral hippocampus (in words) [3, 4]: dose dependent increase
